Reference: patent US20240182406A1, “COMPOUNDS AS SOLUBLE EPOXIDE HYDROLASE INHIBITORS” (UNIVERSITAT DE BARCELONA, priority 2021, published 2024)

How the values were obtained:
[1] = system: C57BL/6 mice; assay: Cerulein-induced acute pancreatitis murine model; assay type: in vivo, mouse
Text: Acute pancreatitis (AP) is a potentially life-threatening gastrointestinal disease, and its incidence has been increasing over the last few decades. The onset of the disease is thought to be triggered by intra-acinar cell activation of digestive enzymes that results in interstitial edema, inflammation and acinar cell death that often leads to a systemic inflammation response. […] The experimental procedure for the in vivo efficacy study followed already published protocols (Mol Pharmacol. 2015 August; 88(2):281-90)
In vivo efficacy study. Forty-one male C57BL/6 mice (eight week-old; approximately 24 g) were supplied by Envigo (Barcelona, Spain) (Ref. 16512). During the experimental procedure, animals were identified with permanent marker (tail code numbers). […] Animals were kept in an environmentally controlled room (ventilation, temperature 22±2° C. and humidity 35-65%) on a 12-h light/dark cycle. A period of 7 days of acclimatization underwent between the date of arrival and the start of the procedure. […] The maintenance diet was supplied by Harlan Interfauna Ibérica S. L. (2018 Harlan Teklad Global Diets). Diet will be provided to the animals ad libitum, but they were fasted overnight before first cerulein injection, and food was replaced after last cerulein injection. Tap water was supplied by CASSA (Servei d'Aigües de Sabadell) ad libitum. The animals were maintained in accordance with European Directive for the Protection of Vertebrate Animals Used for Experimental and other Scientific Purposes (86/609/EU). Decree 214/1997 of 30th July. Ministry of agriculture, livestock and fishing of the Autonomous Government of Catalonia, Spain. Royal Decree 53/2013 of 1st February (Spain). All the experimental procedures were approved by the Ethical Committee on human and animal experimentation (CEEAH) of Universitat Autònoma de Barcelona (UAB) (procedure number: 4107) and by the Animal Experimentation Commission of the Generalitat de Catalunya (Catalan Government) (DAAM: 10146). […]

[2] = system: human primary astrocytes; assay: T/I/C-induced reactive astrocyte conversion, qPCR and Western blotting; assay type: cell-based
Description: To validate the inhibition efficacy of sEH, 10^6 astrocytes isolated from CD1 mouse brain (Sciencell #M1800) or primary human astrocyte (Sciencell #1800) were seeded onto 6 well culture plates in astrocyte medium (Sciencell #1831 or #1801).
Total RNAs were isolated from microglia or astrocyte using a Quick-RNA kit (Zymo Research, Inc., Irvine, CA, USA). The concentration of total RNAs was measured using a UV-Vis spectrophotometer (NanoDrop8000, Thermo Fisher Scientific Inc., Wilmington, DE, USA) and reverse-transcribed with a high-capacity cDNA reverse transcription kit (Applied Biosystems, Carlsbad, CA, USA). Gene expression was quantified by Fast SYBR green real-time PCR on a Quantstudio 5 system (Applied Biosystems). The primer sequences are listed below (Table 8). Data were analyzed according to the comparative Ct method. Glyceraldehyde 3-phosphate dehydrogenase (Gapdh) was used to normalize the amounts of cDNA within each sample.
Proteins were extracted from microglia or astrocyte by RIPA buffer (Thermo Fisher Scientific Inc.). Extracted proteins were separated by SDS/PAGE and subsequently transferred to nitrocellulose membranes (Bio-Rad, Hercules, CA, USA). […] Membranes visualized on Odyssey (LI-COR Biosciences, NE, USA).

[3] = In vitro determination of microsomal stability; assay type: in vitro ADME; settings: human microsomes, 37° C., samples at 0-60 min
Description: The human recombinant microsomes employed were purchased from Tebu-Xenotech. […] Samples (75 μL) were taken from each well at 0, 10, 20, 40 and 60 min and transferred to a plate containing 4° C. 75 μL acetonitrile and 30 μL of 0.5% formic acid in water were added for improving the chromatographic conditions. The plate was centrifuged (46000 g, 30 min) and supernatants were taken and analyzed in a UPLC-MS/MS (Xevo-TQD, Waters) by employing a BEH C18 column and an isocratic gradient of 0.1% formic acid in water:0.1% formic acid acetonitrile (60:40). The metabolic stability of the compounds was calculated from the logarithm of the remaining compounds at each of the time points studied.

[4] = system: SH-SY5Y cells; settings: 100 μM, 24 h
Description: 50 ul of Cell titer Glo reagent was added to each well and incubated for 10 min.

O=C(NC12CC3CC(Cl)(CC(C1)c1ccccc13)C2)N[C@H]1CC[C@H](Oc2ccc(C(=O)O)cc2)CC1 [Example 2, 4-[((1r,4r)-4-(3-(9-chloro-5,6,8,9,10,11-hexahydro-7H-5,9:7,11-dimethanobenzo[9]annulen-7-yl)ureido)cyclohexyl)oxy]benzoic acid]
histologic analysis of pancreas (H&E), severity of cerulein-induced pancreatitis ([1]; both doses 0.1 and 0.3 mg/kg IP): ameliorated cerulein-induced effects | body weight change at end of study ([1]; cerulein 50 μg/kg IP x12, single dose 0.3 or 0.1 mg/kg IP, only 0.3 mg/kg significant (p<0.01 vs Cerulein)): increased body weight | histologic analysis of pancreas (H&E), pancreatic damage, edema, neutrophils infiltration ([1]; higher dose 0.3 mg/kg IP): more efficiently reversed the pancreatic damage, edema and neutrophils infiltration | induction of inflammatory mediators Nos and Cox2 mRNA ([2]; T/I/C 24 h, qPCR): prevented the induction | mRNA levels of reactive astrocyte markers Cxcl10 and C3 ([2]; T/I/C 24 h, qPCR): significantly reduced | protein levels of C3 and phosphor-p38 ([2]; T/I/C-induced reactive astrocyte, 30 μM (FIG. 5f)): decreased | Microsomal stability (% remanent) [3]: 89% | neuronal cell toxicity (viability) [4]: did not show any neuronal cell toxicity
